From PubChem BioAssay AID2060627 (Molecular Pharmacology Branch, DTP, NCI, 2025)

Each compound was assayed on 156681-154-R-J1-PDC complex spheroid viability (assay: Anticancer human tumor 156681-154-R-J1-PDC patient-derived melanoma cell line growth inhibition [CLK]). Settings: second compound 0.316 µM; first compound 0.0316 µM; hits give low values.
Summary of the method: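 Multi-cell-type spheroids combined patient-derived tumor cells with HUVEC endothelial cells and human mesenchymal stem cells. Paired agents were dosed in half-log steps down from about clinical Cmax, or from 10 microM where Cmax was unknown.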
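Further: spheroids exposed to the agents for seven days; 100% = DMSO vehicle control viability.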

SMILES | viability, T/C
CCCS(=O)(=O)Nc1ccc(F)c(C(=O)c2c[nH]c3ncc(-c4ccc(Cl)cc4)cc23)c1F + CNC(=O)c1ccc(Nc2nc(OC3CCCC3)c3c(-c4ccc5nc(C)oc5c4)c[nH]c3n2)c(OC)c1 | 48%
O=C(c1cc(Cc2n[nH]c(=O)c3ccccc23)ccc1F)N1CCN(C(=O)C2CC2)CC1 + CNC(=O)c1ccc(Nc2nc(OC3CCCC3)c3c(-c4ccc5nc(C)oc5c4)c[nH]c3n2)c(OC)c1 | 78.9%
CC(Nc1ccc2c(c1)OCCn1cc(N3C(=O)OCC3C(F)F)nc1-2)C(N)=O (centres undefined) + CN1CCN(c2cc(C(=O)Nc3cc4cc(-c5cnn(C)c5)ccc4cn3)ccn2)CC1 | 21.1%

Same assay, conditions: second compound 0.316 µM; first compound 0.1 µM; hits give low values

SMILES | viability, T/C
C=C(F)C(=O)N1CCN(c2nc(OCC3CCCN3C)nc3c2CCN(c2cccc4cccc(Cl)c24)C3)CC1CC#N (centres undefined) + CN1CCN(c2cc(C(=O)Nc3cc4cc(-c5cnn(C)c5)ccc4cn3)ccn2)CC1 | 24.1%
COc1ccc([C@@H](O)c2cc(-c3ncnc4cc(N5CCOCC5)ccc34)c(F)cc2Cl)nn1 + CN1CCN(c2cc(C(=O)Nc3cc4cc(-c5cnn(C)c5)ccc4cn3)ccn2)CC1 | 16.9%
CCCS(=O)(=O)Nc1ccc(F)c(C(=O)c2c[nH]c3ncc(-c4ccc(Cl)cc4)cc23)c1F + CNC(=O)c1ccc(Nc2nc(OC3CCCC3)c3c(-c4ccc5nc(C)oc5c4)c[nH]c3n2)c(OC)c1 | 58.8%
O=C(c1cc(Cc2n[nH]c(=O)c3ccccc23)ccc1F)N1CCN(C(=O)C2CC2)CC1 + CNC(=O)c1ccc(Nc2nc(OC3CCCC3)c3c(-c4ccc5nc(C)oc5c4)c[nH]c3n2)c(OC)c1 | 69.3%
CC(Nc1ccc2c(c1)OCCn1cc(N3C(=O)OCC3C(F)F)nc1-2)C(N)=O (centres undefined) + CN1CCN(c2cc(C(=O)Nc3cc4cc(-c5cnn(C)c5)ccc4cn3)ccn2)CC1 | 15.7%

Same assay, conditions: second compound 0.316 µM; first compound 0.316 µM; hits give low values

SMILES | viability, T/C
C=C(F)C(=O)N1CCN(c2nc(OCC3CCCN3C)nc3c2CCN(c2cccc4cccc(Cl)c24)C3)CC1CC#N (centres undefined) + CN1CCN(c2cc(C(=O)Nc3cc4cc(-c5cnn(C)c5)ccc4cn3)ccn2)CC1 | 23.3%
COc1ccc([C@@H](O)c2cc(-c3ncnc4cc(N5CCOCC5)ccc34)c(F)cc2Cl)nn1 + CN1CCN(c2cc(C(=O)Nc3cc4cc(-c5cnn(C)c5)ccc4cn3)ccn2)CC1 | 14.8%
CCCS(=O)(=O)Nc1ccc(F)c(C(=O)c2c[nH]c3ncc(-c4ccc(Cl)cc4)cc23)c1F + CNC(=O)c1ccc(Nc2nc(OC3CCCC3)c3c(-c4ccc5nc(C)oc5c4)c[nH]c3n2)c(OC)c1 | 62.3%
O=C(c1cc(Cc2n[nH]c(=O)c3ccccc23)ccc1F)N1CCN(C(=O)C2CC2)CC1 + CNC(=O)c1ccc(Nc2nc(OC3CCCC3)c3c(-c4ccc5nc(C)oc5c4)c[nH]c3n2)c(OC)c1 | 76.3%
CC(Nc1ccc2c(c1)OCCn1cc(N3C(=O)OCC3C(F)F)nc1-2)C(N)=O (centres undefined) + CN1CCN(c2cc(C(=O)Nc3cc4cc(-c5cnn(C)c5)ccc4cn3)ccn2)CC1 | 15%

Same assay, conditions: second compound 0.316 µM; first compound 1 µM; hits give low values

SMILES | viability, T/C
C=C(F)C(=O)N1CCN(c2nc(OCC3CCCN3C)nc3c2CCN(c2cccc4cccc(Cl)c24)C3)CC1CC#N (centres undefined) + CN1CCN(c2cc(C(=O)Nc3cc4cc(-c5cnn(C)c5)ccc4cn3)ccn2)CC1 | 24.7%
COc1ccc([C@@H](O)c2cc(-c3ncnc4cc(N5CCOCC5)ccc34)c(F)cc2Cl)nn1 + CN1CCN(c2cc(C(=O)Nc3cc4cc(-c5cnn(C)c5)ccc4cn3)ccn2)CC1 | 13%
CCCS(=O)(=O)Nc1ccc(F)c(C(=O)c2c[nH]c3ncc(-c4ccc(Cl)cc4)cc23)c1F + CNC(=O)c1ccc(Nc2nc(OC3CCCC3)c3c(-c4ccc5nc(C)oc5c4)c[nH]c3n2)c(OC)c1 | 58.7%
O=C(c1cc(Cc2n[nH]c(=O)c3ccccc23)ccc1F)N1CCN(C(=O)C2CC2)CC1 + CNC(=O)c1ccc(Nc2nc(OC3CCCC3)c3c(-c4ccc5nc(C)oc5c4)c[nH]c3n2)c(OC)c1 | 71%
CC(Nc1ccc2c(c1)OCCn1cc(N3C(=O)OCC3C(F)F)nc1-2)C(N)=O (centres undefined) + CN1CCN(c2cc(C(=O)Nc3cc4cc(-c5cnn(C)c5)ccc4cn3)ccn2)CC1 | 6.71%

Same assay, conditions: second compound 0.316 µM; first compound 3.16 µM; hits give low values

SMILES | viability, T/C
C=C(F)C(=O)N1CCN(c2nc(OCC3CCCN3C)nc3c2CCN(c2cccc4cccc(Cl)c24)C3)CC1CC#N (centres undefined) + CN1CCN(c2cc(C(=O)Nc3cc4cc(-c5cnn(C)c5)ccc4cn3)ccn2)CC1 | 6.76%
COc1ccc([C@@H](O)c2cc(-c3ncnc4cc(N5CCOCC5)ccc34)c(F)cc2Cl)nn1 + CN1CCN(c2cc(C(=O)Nc3cc4cc(-c5cnn(C)c5)ccc4cn3)ccn2)CC1 | 8.38%
CCCS(=O)(=O)Nc1ccc(F)c(C(=O)c2c[nH]c3ncc(-c4ccc(Cl)cc4)cc23)c1F + CNC(=O)c1ccc(Nc2nc(OC3CCCC3)c3c(-c4ccc5nc(C)oc5c4)c[nH]c3n2)c(OC)c1 | 46.1%
O=C(c1cc(Cc2n[nH]c(=O)c3ccccc23)ccc1F)N1CCN(C(=O)C2CC2)CC1 + CNC(=O)c1ccc(Nc2nc(OC3CCCC3)c3c(-c4ccc5nc(C)oc5c4)c[nH]c3n2)c(OC)c1 | 70.3%
CC(Nc1ccc2c(c1)OCCn1cc(N3C(=O)OCC3C(F)F)nc1-2)C(N)=O (centres undefined) + CN1CCN(c2cc(C(=O)Nc3cc4cc(-c5cnn(C)c5)ccc4cn3)ccn2)CC1 | 4.44%

Same assay, conditions: second compound 0.316 µM; first compound 10 µM; hits give low values

SMILES | viability, T/C
C=C(F)C(=O)N1CCN(c2nc(OCC3CCCN3C)nc3c2CCN(c2cccc4cccc(Cl)c24)C3)CC1CC#N (centres undefined) + CN1CCN(c2cc(C(=O)Nc3cc4cc(-c5cnn(C)c5)ccc4cn3)ccn2)CC1 | 1.76%
COc1ccc([C@@H](O)c2cc(-c3ncnc4cc(N5CCOCC5)ccc34)c(F)cc2Cl)nn1 + CN1CCN(c2cc(C(=O)Nc3cc4cc(-c5cnn(C)c5)ccc4cn3)ccn2)CC1 | 2.77%
CCCS(=O)(=O)Nc1ccc(F)c(C(=O)c2c[nH]c3ncc(-c4ccc(Cl)cc4)cc23)c1F + CNC(=O)c1ccc(Nc2nc(OC3CCCC3)c3c(-c4ccc5nc(C)oc5c4)c[nH]c3n2)c(OC)c1 | 14.4%
O=C(c1cc(Cc2n[nH]c(=O)c3ccccc23)ccc1F)N1CCN(C(=O)C2CC2)CC1 + CNC(=O)c1ccc(Nc2nc(OC3CCCC3)c3c(-c4ccc5nc(C)oc5c4)c[nH]c3n2)c(OC)c1 | 54.3%
CC(Nc1ccc2c(c1)OCCn1cc(N3C(=O)OCC3C(F)F)nc1-2)C(N)=O (centres undefined) + CN1CCN(c2cc(C(=O)Nc3cc4cc(-c5cnn(C)c5)ccc4cn3)ccn2)CC1 | 4.8%

Same assay, conditions: second compound 1 µM; first compound 0.0316 µM; hits give low values

SMILES | viability, T/C
C=C(F)C(=O)N1CCN(c2nc(OCC3CCCN3C)nc3c2CCN(c2cccc4cccc(Cl)c24)C3)CC1CC#N (centres undefined) + CN1CCN(c2cc(C(=O)Nc3cc4cc(-c5cnn(C)c5)ccc4cn3)ccn2)CC1 | 0.16%
